Experimental data from US20240425518A1, “N-MACROCYCLIC AMIDE COMPOUNDS, PREPARATION METHODS THEREOF AND APPLICATIONS THEREOF AS MEDICAMENTS” (Chengdu FANXI Biopharma Co., Ltd., priority 2023, published 2024).
Positions count from the first letter of the chain named.

Key:
Assay type in all cases: biochemical
[1] = target: T1, Ab1 (h) (Homo sapiens, UniProt P00519); experiment: Radioisotope labeling kinase assay (Eurofins), Ab1; conditions: 1 μM compound; read-out: Inhibitory activity per unit concentration/Activity % Ab1 (h)
T1 construct: purchased Eurofins
T1 sequence (P00519 whole entry): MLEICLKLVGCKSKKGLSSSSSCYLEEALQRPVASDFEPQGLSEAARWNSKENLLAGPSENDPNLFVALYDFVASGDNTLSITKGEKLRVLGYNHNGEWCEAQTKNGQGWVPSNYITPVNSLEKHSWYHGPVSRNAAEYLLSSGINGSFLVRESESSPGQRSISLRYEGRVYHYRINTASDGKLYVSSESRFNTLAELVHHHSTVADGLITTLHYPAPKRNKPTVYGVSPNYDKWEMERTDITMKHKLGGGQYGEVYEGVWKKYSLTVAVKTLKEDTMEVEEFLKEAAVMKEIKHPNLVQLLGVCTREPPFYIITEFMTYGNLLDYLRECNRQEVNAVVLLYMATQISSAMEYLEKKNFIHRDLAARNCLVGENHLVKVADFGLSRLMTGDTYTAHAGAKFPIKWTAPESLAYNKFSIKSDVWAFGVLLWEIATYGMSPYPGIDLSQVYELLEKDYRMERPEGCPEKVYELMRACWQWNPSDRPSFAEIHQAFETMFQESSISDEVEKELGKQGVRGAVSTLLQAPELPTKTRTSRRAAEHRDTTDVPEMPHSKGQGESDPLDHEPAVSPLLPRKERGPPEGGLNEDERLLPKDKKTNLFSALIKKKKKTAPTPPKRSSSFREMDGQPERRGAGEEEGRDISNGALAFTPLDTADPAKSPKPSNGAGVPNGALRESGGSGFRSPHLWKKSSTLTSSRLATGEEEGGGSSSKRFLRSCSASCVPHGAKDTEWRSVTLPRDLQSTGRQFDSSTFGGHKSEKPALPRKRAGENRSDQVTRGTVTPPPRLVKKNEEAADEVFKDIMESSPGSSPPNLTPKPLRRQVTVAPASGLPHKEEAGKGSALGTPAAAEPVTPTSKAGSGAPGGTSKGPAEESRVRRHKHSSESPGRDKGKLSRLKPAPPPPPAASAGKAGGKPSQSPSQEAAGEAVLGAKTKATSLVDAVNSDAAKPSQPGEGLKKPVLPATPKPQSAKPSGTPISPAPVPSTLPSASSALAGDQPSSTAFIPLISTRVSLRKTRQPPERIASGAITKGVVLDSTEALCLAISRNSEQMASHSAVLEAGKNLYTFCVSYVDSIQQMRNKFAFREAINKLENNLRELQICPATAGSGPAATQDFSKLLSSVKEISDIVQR
Procedure: (§1) An activity to a human recombinant protein kinase of a series of compounds was determined by a radioisotope labeling method, which was provided by Eurofins Company. A compound to be detected was mixed with a corresponding protein kinase buffer (20 mM propyl sulfonate (MOPS, […].), 1 mM EDTA, 0.10 β-mercaptoethanol, 0.010 Brij-35, […], and 1 mg/mL BSA), the mixture was added into a reaction system (100 μM reaction substrate […], 8 mM MOPS with a pH value of 7.0, 10 mM MgAcetate, 0.2 mM EDTA, and a certain concentration of γ-^33P-ATP). After adding an MgATP composite solution, the reaction was started at room temperature for 40 minutes, and the reaction was terminated by adding 5 μl of […] solution. Then, 10 μl of reaction solution was dropwise added onto a filter and washed with 75 mM phosphoric acid solution for three times, 5 minutes each time, then washed with methanol once again, and dried and subjected to scintillation counting.

[2] = target: T2, BTK (h) (Homo sapiens, UniProt Q06187); experiment: Radioisotope labeling kinase assay (Eurofins), BTK; conditions: 1 μM compound; read-out: Inhibitory activity per unit concentration/Activity % BTK (h)
T2 construct: purchased Eurofins
T2 sequence (Q06187 whole entry): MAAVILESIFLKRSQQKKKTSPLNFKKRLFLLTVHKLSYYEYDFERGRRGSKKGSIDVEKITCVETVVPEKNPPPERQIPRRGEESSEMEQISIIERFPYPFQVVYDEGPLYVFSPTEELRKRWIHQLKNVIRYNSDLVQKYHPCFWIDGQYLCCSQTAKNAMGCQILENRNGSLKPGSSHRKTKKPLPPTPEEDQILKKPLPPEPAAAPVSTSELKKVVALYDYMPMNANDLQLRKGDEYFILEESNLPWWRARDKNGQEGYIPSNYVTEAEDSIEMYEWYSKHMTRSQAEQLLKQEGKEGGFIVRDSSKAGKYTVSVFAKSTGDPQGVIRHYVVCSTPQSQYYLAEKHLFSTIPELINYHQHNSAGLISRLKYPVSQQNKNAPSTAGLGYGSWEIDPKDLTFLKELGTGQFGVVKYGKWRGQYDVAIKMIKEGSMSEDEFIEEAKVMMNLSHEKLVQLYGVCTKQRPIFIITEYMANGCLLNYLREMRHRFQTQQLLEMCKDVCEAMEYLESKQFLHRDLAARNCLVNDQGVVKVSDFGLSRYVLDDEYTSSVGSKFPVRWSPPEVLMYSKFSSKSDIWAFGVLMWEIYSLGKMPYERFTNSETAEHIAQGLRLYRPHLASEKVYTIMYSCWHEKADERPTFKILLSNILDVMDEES
Procedure: as §1

[3] = target: T3, Flt3 (D835Y) (h) (Homo sapiens, UniProt P36888, D835Y); experiment: Radioisotope labeling kinase assay (Eurofins), Flt3 (D835Y); conditions: 1 μM compound; read-out: Inhibitory activity per unit concentration/Activity % Flt3 (D835Y) (h)
T3 construct: purchased Eurofins
T3 sequence (P36888 27-993 D835Y): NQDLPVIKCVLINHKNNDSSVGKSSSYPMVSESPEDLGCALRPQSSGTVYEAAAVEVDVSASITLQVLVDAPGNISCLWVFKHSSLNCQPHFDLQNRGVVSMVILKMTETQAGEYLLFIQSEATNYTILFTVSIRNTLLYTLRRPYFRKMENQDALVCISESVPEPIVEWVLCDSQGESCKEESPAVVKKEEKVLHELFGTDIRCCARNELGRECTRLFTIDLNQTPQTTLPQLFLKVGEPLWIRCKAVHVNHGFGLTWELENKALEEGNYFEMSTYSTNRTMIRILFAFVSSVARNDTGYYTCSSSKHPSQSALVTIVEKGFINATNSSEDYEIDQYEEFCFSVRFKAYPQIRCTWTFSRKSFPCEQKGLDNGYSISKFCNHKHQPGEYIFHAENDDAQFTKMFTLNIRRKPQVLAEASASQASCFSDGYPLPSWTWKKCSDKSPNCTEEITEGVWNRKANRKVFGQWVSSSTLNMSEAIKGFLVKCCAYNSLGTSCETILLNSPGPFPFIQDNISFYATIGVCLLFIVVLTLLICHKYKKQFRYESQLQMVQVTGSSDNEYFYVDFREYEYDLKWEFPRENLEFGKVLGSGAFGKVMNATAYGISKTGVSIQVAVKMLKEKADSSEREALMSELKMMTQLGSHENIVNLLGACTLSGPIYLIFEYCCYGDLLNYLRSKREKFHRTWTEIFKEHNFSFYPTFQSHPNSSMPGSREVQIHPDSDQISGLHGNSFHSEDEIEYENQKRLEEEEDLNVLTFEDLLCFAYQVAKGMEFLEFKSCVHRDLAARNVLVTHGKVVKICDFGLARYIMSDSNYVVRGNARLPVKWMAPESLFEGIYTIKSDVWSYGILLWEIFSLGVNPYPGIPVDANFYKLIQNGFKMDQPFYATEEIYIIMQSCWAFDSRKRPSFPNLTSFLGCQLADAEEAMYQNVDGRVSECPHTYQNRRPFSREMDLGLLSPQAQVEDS
Procedure: as §1

[4] = target: T4, Flt3 (h) (Homo sapiens, UniProt P36888); experiment: Radioisotope labeling kinase assay (Eurofins), Flt3; conditions: 1 μM compound; read-out: Inhibitory activity per unit concentration/Activity % Flt3 (h)
T4 construct: purchased Eurofins
T4 sequence (P36888 27-993): T3 sequence (P36888 27-993 D835Y) with Y809D
Procedure: as §1

[5] = target: T5, JAK3 (h) (Homo sapiens, UniProt P52333); experiment: Radioisotope labeling kinase assay (Eurofins), JAK3; conditions: 1 μM compound; read-out: Inhibitory activity per unit concentration/Activity % JAK3 (h)
T5 construct: purchased Eurofins
T5 sequence (P52333 1-1124): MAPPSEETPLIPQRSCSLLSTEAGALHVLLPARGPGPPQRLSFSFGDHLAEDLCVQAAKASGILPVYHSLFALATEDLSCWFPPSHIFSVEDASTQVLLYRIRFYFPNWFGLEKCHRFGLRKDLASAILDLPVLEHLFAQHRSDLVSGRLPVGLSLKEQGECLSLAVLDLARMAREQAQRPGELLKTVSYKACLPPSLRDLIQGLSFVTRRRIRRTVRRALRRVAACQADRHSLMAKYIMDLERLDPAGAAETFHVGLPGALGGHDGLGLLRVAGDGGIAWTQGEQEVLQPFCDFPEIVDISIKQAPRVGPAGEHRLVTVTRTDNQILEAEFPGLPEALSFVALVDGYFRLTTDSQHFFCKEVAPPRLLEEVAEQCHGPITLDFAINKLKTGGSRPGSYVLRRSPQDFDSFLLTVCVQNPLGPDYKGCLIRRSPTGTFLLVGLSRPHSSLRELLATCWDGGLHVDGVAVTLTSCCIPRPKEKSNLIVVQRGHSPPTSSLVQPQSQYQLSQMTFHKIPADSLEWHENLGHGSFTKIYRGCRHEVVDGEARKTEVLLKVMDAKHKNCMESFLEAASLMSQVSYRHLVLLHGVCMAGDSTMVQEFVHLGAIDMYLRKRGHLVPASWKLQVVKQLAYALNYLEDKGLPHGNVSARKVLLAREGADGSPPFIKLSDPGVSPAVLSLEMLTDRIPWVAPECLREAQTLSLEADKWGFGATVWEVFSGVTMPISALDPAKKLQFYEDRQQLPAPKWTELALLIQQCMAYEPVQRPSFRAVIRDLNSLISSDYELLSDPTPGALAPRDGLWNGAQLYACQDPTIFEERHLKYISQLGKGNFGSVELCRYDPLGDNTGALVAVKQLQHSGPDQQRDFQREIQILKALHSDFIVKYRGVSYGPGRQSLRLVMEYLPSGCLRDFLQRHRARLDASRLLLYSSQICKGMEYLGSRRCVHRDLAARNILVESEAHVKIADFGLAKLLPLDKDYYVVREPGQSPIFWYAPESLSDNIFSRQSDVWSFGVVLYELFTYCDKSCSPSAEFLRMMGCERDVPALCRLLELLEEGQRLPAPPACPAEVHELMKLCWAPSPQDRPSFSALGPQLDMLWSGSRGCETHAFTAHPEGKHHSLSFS
Procedure: as §1

Row | Structure (SMILES) | activity at 1 µM [1] | activity at 1 µM [2] | activity at 1 µM [3] | activity at 1 µM [4] | activity at 1 µM [5]
1 | CN1C/C=C/COCc2cccc(c2)-c2ccnc(n2)Nc2cc(N)cc(c2)C1 [XIII-2] | 57% | 71% | 1% | 7% | 77%
2 | N#Cc1ccc(/C=C/C(=O)Nc2cc3cc(c2)Nc2nccc(n2)-c2cccc(c2)COC/C=C/COC3)cc1 [XVI-2] | 42% | 61% | 3% | 12% | 56%
3 | O=C(/C=C/C(F)(F)F)Nc1cc2cc(c1)Nc1nccc(n1)-c1cccc(c1)COC/C=C/COC2 [XVI-5] | 57% | 88% | 7% | 17% | 75%
4 | O=C(/C=C/c1cnc[nH]1)Nc1cc2cc(c1)Nc1nccc(n1)-c1cccc(c1)COC/C=C/COC2 [XVI-7] | 17% | 45% | -1% | 7% | 21%
5 | O=C(/C=C/CNC1CCOC1)Nc1cc2cc(c1)Nc1nccc(n1)-c1cccc(c1)COC/C=C/COC2 (centres unmarked) [XVI-15] | 7% | 12% | 6% | 20% | 6%
6 | C1=C/COCc2cccc(c2)-c2ccnc(n2)Nc2cc(cc(OC/C=C/CN3CCOCC3)c2)COC/1 [XVI-16] | 19% | 48% | -1% | 20% | 32%
7 | NC1CCN(C/C=C/C(=O)Nc2cc3cc(c2)Nc2nccc(n2)-c2cccc(c2)COC/C=C/COC3)C1 (centres unmarked) [XVI-17] | -4% | 17% | 8% | 16% | 4%
8 | O=C(/C=C/CN1CCC(O)C1)Nc1cc2cc(c1)Nc1nccc(n1)-c1cccc(c1)COC/C=C/COC2 (centres unmarked) [XVI-18] | 2% | 17% | 4% | 19% | 8%
9 | O=C(/C=C/CNC1CCOC1)Nc1cc2cc(c1)Nc1nccc(n1)-c1cccc(c1)CCC/C=C/COC2 (centres unmarked) [XVI-19] | 2% | 17% | -3% | 23% | 6%

More lines, now with the values ahead:

Row | activity at 1 µM [1] | activity at 1 µM [2] | activity at 1 µM [3] | activity at 1 µM [4] | activity at 1 µM [5] | Structure (SMILES)
10 | 39% | 49% | -2% | 24% | 34% | O=C(/C=C/COc1cc2cc(c1)Nc1nccc(n1)-c1cccc(c1)COC/C=C/COC2)N1CCCC1 [XVI-13]
11 | 46% | 47% | 3% | 8% | 21% | O=C(/C=C/COc1cc2cc(c1)Nc1nccc(n1)-c1cccc(c1)COC/C=C/COC2)N1CCOCC1 [XVI-14]
12 | 85% | 90% | 33% | 91% | 97% | C1=C/COCc2ccc(OC/C=C/CN3CCCC3)c(c2)Nc2nccc(n2)-c2cccc(c2)COC/1 [XVI-20]
13 | 92% | 78% | 44% | 82% | 95% | O=C(/C=C/COc1ccc2cc1Nc1nccc(n1)-c1cccc(c1)COC/C=C/COC2)N1CCCC1 [XVI-21]
14 | 81% | 82% | 41% | 96% | 100% | O=C(/C=C/COc1ccc2cc1Nc1nccc(n1)-c1cccc(c1)COC/C=C/COC2)N1CCOCC1 [XVI-22]
15 | 85% | 90% | 27% | 78% | 10% | C1=C/COCc2ccc(OC/C=C/CN3CCOCC3)c(c2)Nc2nccc(n2)-c2cccc(c2)COC/1 [XVI-23]
16 | 81% | 86% | 50% | 82% | 88% | CN1CCC(NC(=O)/C=C/COc2ccc3cc2Nc2nccc(n2)-c2cccc(c2)COC/C=C/COC3)C1 (centres unmarked) [XVI-24]
